Source: patent EP3898610B1, “NOVEL AZA-HEXAPHENE ANTIBIOTIC COMPOUNDS” (Fondazione Istituto Insubrico di Ricerca per la Vita, priority 2018, dated 2020)
Values after ≈ are worked out from the molar mass of the structure shown. Read-outs that look alike come from different tables or passages of the source.

Experiments:
L44 S. pneumoniae = assay: MIC, broth microdilution (CLSI); assay type: cell-based; details: Streptococcus pneumoniae
Procedure: (§1) Antibacterial activity. […] Each bacterial strain was inoculated with 2-5×10^5 CFU/ml, Candida albicans with 10^4 CFU/ml. Cultures were incubated at 35°C in air. After 18-24 hours visual readings were performed and MICs (Minimal Inhibitory Concentrations) determined. The effect of 30% bovine serum was determined under the same experimental conditions. The strains used were clinical isolates or strains from American Type Culture Collection (ATCC).

L560 E. faecalis VanA = assay: MIC, broth microdilution (CLSI); assay type: cell-based; details: Enterococcus faecalis
Procedure: as §1

L49 S. pyogenes C203 = assay: MIC, broth microdilution (CLSI); assay type: cell-based; details: Streptococcus pyogenes
Procedure: as §1

L1400 S. aureus HA-MRSA = assay: MIC, broth microdilution (CLSI); assay type: cell-based; details: Staphylococcus aureus
Procedure: as §1

[1] = tested on: L1729 S. haemolyticus MDR; assay: MIC, broth microdilution (CLSI); assay type: cell-based; details: Staphylococcus haemolyticus
Procedure: as §1

L1730 S. haemolyticus = assay: MIC, broth microdilution (CLSI); assay type: cell-based; details: Staphylococcus haemolyticus
Procedure: as §1

L3294 M. catarrhalis = assay: MIC, broth microdilution (CLSI); assay type: cell-based; details: Moraxella catarrhalis
Procedure: as §1

L1577 S. epidermidis = assay: MIC, broth microdilution (CLSI); assay type: cell-based; details: Staphylococcus epidermidis
Procedure: as §1

L100 S. aureus ATCC6538P = assay: MIC, broth microdilution (CLSI); assay type: cell-based; details: Staphylococcus aureus
Procedure: as §1

L559 E. faecalis = assay: MIC, broth microdilution (CLSI); assay type: cell-based; details: Enterococcus faecalis
Procedure: as §1

L47 E. coli = assay: MIC, broth microdilution (CLSI); assay type: cell-based; details: Escherichia coli
Procedure: as §1

L819 S. aureus Smith = assay: MIC, broth microdilution (CLSI); assay type: cell-based; details: Staphylococcus aureus
Procedure: as §1

L569 E. faecium VanA = assay: MIC, broth microdilution (CLSI); assay type: cell-based; details: Enterococcus faecium
Procedure: as §1

L568 E. faecium = assay: MIC, broth microdilution (CLSI); assay type: cell-based; details: Enterococcus faecium
Procedure: as §1

L145 C. albicans = assay: MIC, broth microdilution (CLSI); assay type: cell-based; details: Candida albicans
Procedure: (§2) Antibacterial activity. The antimicrobial activity of the antibiotic 103/33-F710 was determined by the broth microdilution method according to the procedures published by the Clinical and Laboratory Standards Institute (CLSI), formerly the National Committee for Clinical Laboratory Standards (NCCLS) (document M07-A9). Microorganisms were grown in either cation-adjusted Mueller Hinton Broth (Staphylococci, Enterococci, Moraxella catarrhalis, Escherichia coli), Todd Hewitt medium (Streptococci) or RPMI 1640 medium for Candida albicans on 96-well microtiter plates. Each bacterial strain was inoculated with 2-5×10^5 CFU/ml, Candida albicans with 10^4 CFU/ml. Cultures were incubated at 35°C in air. After 18-24 hours visual readings were performed and MICs (Minimal Inhibitory Concentrations) determined. The effect of 30% bovine serum was determined under the same experimental conditions. The strains used were clinical isolates or strains from American Type Culture Collection (ATCC). The antibiotic 103/33-F710 was dissolved in DMSO to obtain a 1000 µg/ml stock solution, and subsequently diluted in water to obtain working solution. Table 5: Antimicrobial activity reported as MIC (µg/ml) of ID103/33-F710
Antibacterial activity. The antimicrobial activity of the antibiotic 103/33-F696 was determined by the broth microdilution method according to the procedures disclosed in Example 7. Table 6: Antimicrobial activity reported as MIC (µg/ml) of compound 2 (103/33-F696)
Antibacterial activity. The antimicrobial activity of the antibiotic 103/33-F712 was determined by the broth microdilution method according to the procedures disclosed in Example 7. Table 7: Antimicrobial activity reported as MIC (µg/ml) of ID103/33-F712

[2] = Stability as a function of pH; assay type: physicochemical; details: basic pH
Procedure: (§3) Solubility of compound 1 (103/33 F-710) was poor in most low to medium- polarity organic solvents, as well as in water from acidic to neutral pH; it was more soluble at basic pH and stable up to pH 8-9, while in alcohols it ranged between 5-10 mg/ml. […] Some crystallizations trials were performed on compound 1 (103/33 F-710) in order to obtain suitable crystals for the X-ray structural characterization.

[3] = tested on: HepG2 cells from hepatocarcinoma; assay: Cytotoxicity against human cells; assay type: cell-based; details: at 200 µg/ml, the highest concentration tested
[4] = tested on: BJ5TA - ATCC CRL-4401 normal fibroblast; assay: Cytotoxicity against human cells; assay type: cell-based; details: at 200 µg/ml, the highest concentration tested
VA827901 B. cereus = assay: MIC, broth microdilution (CLSI); assay type: cell-based; details: Bacillus cereus, 35°C, 18-24 hours
Procedure: as §2

[5] = tested on: VA801801 L. monocytogenes; assay: MIC, broth microdilution (CLSI); assay type: cell-based; details: Listeria monocytogenes, 35°C, 18-24 hours
Procedure: as §2

VA645601 B. clausii = assay: MIC, broth microdilution (CLSI); assay type: cell-based; details: Shouchella clausii, 35°C, 18-24 hours
Procedure: as §2

[6] = tested on: Staphylococcus aureus Smith 819 ATCC 19636; assay: Murine septicemia model; assay type: in vivo; details: ATCC19636, intravenous administrations
Text: Effectiveness. […] This level of protection was observed after intravenous administrations.

human erythrocytes = assay: Hemolytic activity; assay type: cell-based
[7] = tested on: VA80201 S. aureus CA-MRSA; assay: MIC, broth microdilution (CLSI); assay type: cell-based; details: Staphylococcus aureus; VA80201 S. aureus CA-MRSA; cation-adjusted Mueller Hinton Broth, 35°C, 18-24 hours; read-out: MIC
Procedure: as §1

[8] = tested on: VA8101 S. agalactiae (Group B); assay: MIC, broth microdilution (CLSI); assay type: cell-based; details: Streptococcus agalactiae; VA8101 S. agalactiae (Group B); Todd Hewitt medium, 35°C, 18-24 hours; read-out: MIC
Procedure: as §1

[9] = tested on: L4061 S. aureus MRSA - GISA; assay: MIC, broth microdilution (CLSI); assay type: cell-based; details: Staphylococcus aureus; L4061 S. aureus MRSA - GISA; cation-adjusted Mueller Hinton Broth, 35°C, 18-24 hours; read-out: MIC
Procedure: as §1

[10] = tested on: Hela cells from cervix adenocarcinoma; assay: Cytotoxicity against human cells; assay type: cell-based; details: at 200 µg/ml
Solubility = assay type: physicochemical
Procedure: as §3

[11] = tested on: L4187 E. faecium VanA - Lnz R - Cpx R; assay: microbe, parasite or virus in culture; assay type: cell-based; details: Enterococcus faecium; L4187 E. faecium VanA - Lnz R - Cpx R; cation-adjusted Mueller Hinton Broth, 35°C, 18-24 hours; read-out: MIC
Procedure: as §1

SMILES: COc1c(OC)c2c(=O)c3cc(C)n(C(CC4CN(C)C(=N)N4)C(=O)O)c(=O)c3c(=O)c2c2cc3c(=O)c4cc(O)cc(O)c4c(=O)c3c(O)c12 (stereo not drawn) [compound 2, 2-(8,10,12-Trihydroxy-6,7-dimethoxy-3-methyl-1,5,9,14,16-pentaoxo-5,9,14,16-tetrahydro-1H-2-aza-hexaphen-2-yl)-3-(2-imino-1-methyl-imidazolidin-4-yl)-propionic acid]
- MIC (L44 S. pneumoniae): 32 µg/mL (≈ 45.9 µM)
- MIC (L560 E. faecalis VanA): 0.03 µg/mL (≈ 0.0431 µM)
- MIC (L49 S. pyogenes C203): 1 µg/mL (≈ 1.44 µM)
- MIC (L1400 S. aureus HA-MRSA; MRSA): 0.03 µg/mL (≈ 0.0431 µM)
- MIC [1]: 0.06 µg/mL (≈ 0.0861 µM)
- MIC (L1730 S. haemolyticus): 0.03 µg/mL (≈ 0.0431 µM)
- MIC (L3294 M. catarrhalis): 64 µg/mL (≈ 91.9 µM)
- MIC (L1577 S. epidermidis): 0.03 µg/mL (≈ 0.0431 µM)
- MIC (L100 S. aureus ATCC6538P; ATCC6538P): 0.03 µg/mL (≈ 0.0431 µM)
- MIC (L559 E. faecalis): 0.03 µg/mL (≈ 0.0431 µM)
- MIC (L47 E. coli): > 512 µg/mL
- MIC (L819 S. aureus Smith): 0.015 µg/mL (≈ 0.0215 µM)
- MIC (L569 E. faecium VanA): 0.5 µg/mL (≈ 0.718 µM)
- MIC (L568 E. faecium): 0.125 µg/mL (≈ 0.179 µM)
- MIC (L145 C. albicans): > 512 µg/mL

SMILES: COc1c(OC)c2c(=O)c3cc(C)n(C(CC4CN(C)C(=N)N4)C(=O)O)c(=O)c3c(=O)c2c2cc3c(=O)c4cc(O)cc(O)c4c(=O)c3c(OC)c12 (stereo not drawn) [compound 1, 2-(10,12-Dihydroxy-6,7,8-trimethoxy-3-methyl-1,5,9,14,16-pentaoxo-5,9,14,16-tetrahydro-1H-2-aza-hexaphen-2-yl)-3-(2-imino-1-methyl-imidazolidin-4-yl)-propionic acid]
- stable up to pH [2]: 8-9
- toxicity against human cells [3]: no toxicity
- toxicity against human cells [4]: no toxicity
- MIC (VA827901 B. cereus): 0.06 µg/mL (≈ 0.0844 µM)
- MIC [5]: 0.06 µg/mL (≈ 0.0844 µM)
- MIC (VA645601 B. clausii): 0.125 µg/mL (≈ 0.176 µM)
- ED50 [6]: 15 mg/kg
- hemolytic activity (human erythrocytes): no hemolytic activity
- MIC (L44 S. pneumoniae; L44 S. pneumoniae, Todd Hewitt medium, 35°C, 18-24 hours, read-out: MIC): 16 µg/mL (≈ 22.5 µM)
- MIC [7]: 0.015 µg/mL (≈ 0.0211 µM)
- MIC (L560 E. faecalis VanA; L560 E. faecalis VanA, cation-adjusted Mueller Hinton Broth, 35°C, 18-24 hours, read-out: MIC): 0.03 µg/mL (≈ 0.0422 µM)
- MIC (L49 S. pyogenes C203; L49 S. pyogenes C203, Todd Hewitt medium, 35°C, 18-24 hours, read-out: MIC): 16 µg/mL (≈ 22.5 µM)
- MIC (L1400 S. aureus HA-MRSA; L1400 S. aureus HA-MRSA, cation-adjusted Mueller Hinton Broth, 35°C, 18-24 hours, read-out: MIC): 0.03 µg/mL (≈ 0.0422 µM)
- MIC ([1]; L1729 S. haemolyticus MDR, cation-adjusted Mueller Hinton Broth, 35°C, 18-24 hours, read-out: MIC): 0.016 µg/mL (≈ 0.0225 µM)
- MIC (L1730 S. haemolyticus; L1730 S. haemolyticus, cation-adjusted Mueller Hinton Broth, 35°C, 18-24 hours, read-out: MIC): 0.03 µg/mL (≈ 0.0422 µM)
- MIC [8]: 8 µg/mL (≈ 11.3 µM)
- MIC (L1577 S. epidermidis; L1577 S. epidermidis, cation-adjusted Mueller Hinton Broth, 35°C, 18-24 hours, read-out: MIC): 0.06 µg/mL (≈ 0.0844 µM)
- MIC (L100 S. aureus ATCC6538P; L100 S. aureus ATCC6538P, cation-adjusted Mueller Hinton Broth, 35°C, 18-24 hours, read-out: MIC): 0.03 µg/mL (≈ 0.0422 µM)
- MIC (L559 E. faecalis; L559 E. faecalis, cation-adjusted Mueller Hinton Broth, 35°C, 18-24 hours, read-out: MIC): 0.03 µg/mL (≈ 0.0422 µM)
- MIC [9]: 0.06 µg/mL (≈ 0.0844 µM)
- MIC (L47 E. coli; L47 E. coli, cation-adjusted Mueller Hinton Broth, 35°C, 18-24 hours, read-out: MIC): > 256 µg/mL
- MIC (L819 S. aureus Smith; L819 S. aureus Smith, cation-adjusted Mueller Hinton Broth, 35°C, 18-24 hours, read-out: MIC): 0.06 µg/mL (≈ 0.0844 µM)
- MIC (L569 E. faecium VanA; L569 E. faecium VanA, cation-adjusted Mueller Hinton Broth, 35°C, 18-24 hours, read-out: MIC): 2 µg/mL (≈ 2.81 µM)
- MIC (L568 E. faecium; L568 E. faecium, cation-adjusted Mueller Hinton Broth, 35°C, 18-24 hours, read-out: MIC): 2 µg/mL (≈ 2.81 µM)
- toxicity against human cells ([10]; Hela cells, the highest concentration tested): no toxicity
- inhibit replication of HeLa cell [10]: does not inhibit
- Solubility (Solubility; acetone): scarcely soluble
- Solubility (Solubility; at basic pH): more soluble
- Solubility (Solubility; dimethylformamide (DMF)): soluble
- Solubility (Solubility; methanol (MeOH)): scarcely soluble
- Solubility (Solubility; most low to medium- polarity organic solvents): poor
- Solubility (Solubility; organic solvent or mixture, dimethylsulfoxide (DMSO), read-out: Solubility): > 50000 µg/mL
- Solubility (Solubility; organic solvent or mixture, in alcohols, read-out: Solubility): 5000 to 10000 µg/mL (≈ 7040 to 14100 µM)
- Solubility (Solubility; water from acidic to neutral pH): poor
- MIC (L145 C. albicans; L145 C. albicans, RPMI 1640 medium, 10^4 CFU/ml, 35°C, 18-24 hours, read-out: MIC): 256 µg/mL (≈ 360 µM)
- MIC [11]: 2 µg/mL (≈ 2.81 µM)
